Results from ChEMBL document CHEMBL5518200, “Heterocyclic-Modified Imidazoquinoline Derivatives: Selective TLR7 Agonist Regulates Tumor Microenvironment against Melanoma” (J Med Chem, 2024).
Blank lines part the entries; values can stand above or below the compound they belong to.

Key:
B16-F10 = experiment: Antitumor immunity against mouse B16-F10 cells implanted in C57BL/6J mouse assessed as increase in intracellular granzyme B level in tumor CD8-positive T cells at 25 mg/kg, ip administered every 2 days starting from 3 days post tumor inoculation and measured on day 18 by flow cytometry analysis (reference value: 14.5%); assay type: functional; conditions: time 15 day
Peritoneal macrophage [1] = experiment: Induction of M1 like macrophage polarization in mouse peritoneal macrophages assessed as decrease in CD206-positive cells at 10 ug/ml incubated for 24 hrs by flow cytometry analysis (reference value: 79%); assay type: functional; set-up: scale not given: the % may be the effect or the level left; conditions: dose 10 µg/ml
Peritoneal macrophage [2] = experiment: Induction of M1 like macrophage polarization in mouse peritoneal macrophages assessed as increase in CD86-positive cells at 10 ug/ml incubated for 24 hrs by flow cytometry analysis (reference value: 18.4%); assay type: functional; conditions: dose 10 µg/ml
[3] = Toxicity in C57BL/6J mouse implanted with mouse B16-F10 cells assessed as increase in systemic TNF-alpha secretion in serum at 25 mg/kg, ip administered every 2 days starting from 3 days post tumor inoculation and measured on day 18 by ELISA; assay type: organism-based; conditions: in vivo, 360 h, time 15 day
L02 = experiment: Cytotoxicity against human L02 cells assessed as reduction in cell viability upto 100 uM incubated for 24 hrs by CCK-8 assay; assay type: toxicity, cell-based; conditions: l02, 24 h
[4] = Toxicity in C57BL/6J mouse implanted with mouse B16-F10 cells assessed as pathological changes in kidney at 25 mg/kg, ip administered every 2 days starting from 3 days post tumor inoculation and measured on day 18 by H and E staining based analysis; assay type: organism-based; conditions: in vivo, 360 h, time 15 day
[5] = Toxicity in C57BL/6J mouse implanted with mouse B16-F10 cells assessed as reduction in body weight at 2.5 to 20 mg/kg, ip administered every 2 days starting from 3 days post tumor inoculation and measured on day 18; assay type: organism-based; conditions: in vivo, 360 h, dose 2.5-20 mg/kg, time 15 day
[6] = Toxicity in C57BL/6J mouse implanted with mouse B16-F10 cells assessed as pathological changes in heart at 25 mg/kg, ip administered every 2 days starting from 3 days post tumor inoculation and measured on day 18 by H and E staining based analysis; assay type: organism-based; conditions: in vivo, 360 h, time 15 day
Toll-like receptor 7 [7] = target: T1, Toll-like receptor 7 (Mus musculus, UniProt P58681); experiment: Binding affinity to recombinant mouse TLR7 assessed as dissociation constant by SPR analysis
T1 sequence (P58681 whole entry): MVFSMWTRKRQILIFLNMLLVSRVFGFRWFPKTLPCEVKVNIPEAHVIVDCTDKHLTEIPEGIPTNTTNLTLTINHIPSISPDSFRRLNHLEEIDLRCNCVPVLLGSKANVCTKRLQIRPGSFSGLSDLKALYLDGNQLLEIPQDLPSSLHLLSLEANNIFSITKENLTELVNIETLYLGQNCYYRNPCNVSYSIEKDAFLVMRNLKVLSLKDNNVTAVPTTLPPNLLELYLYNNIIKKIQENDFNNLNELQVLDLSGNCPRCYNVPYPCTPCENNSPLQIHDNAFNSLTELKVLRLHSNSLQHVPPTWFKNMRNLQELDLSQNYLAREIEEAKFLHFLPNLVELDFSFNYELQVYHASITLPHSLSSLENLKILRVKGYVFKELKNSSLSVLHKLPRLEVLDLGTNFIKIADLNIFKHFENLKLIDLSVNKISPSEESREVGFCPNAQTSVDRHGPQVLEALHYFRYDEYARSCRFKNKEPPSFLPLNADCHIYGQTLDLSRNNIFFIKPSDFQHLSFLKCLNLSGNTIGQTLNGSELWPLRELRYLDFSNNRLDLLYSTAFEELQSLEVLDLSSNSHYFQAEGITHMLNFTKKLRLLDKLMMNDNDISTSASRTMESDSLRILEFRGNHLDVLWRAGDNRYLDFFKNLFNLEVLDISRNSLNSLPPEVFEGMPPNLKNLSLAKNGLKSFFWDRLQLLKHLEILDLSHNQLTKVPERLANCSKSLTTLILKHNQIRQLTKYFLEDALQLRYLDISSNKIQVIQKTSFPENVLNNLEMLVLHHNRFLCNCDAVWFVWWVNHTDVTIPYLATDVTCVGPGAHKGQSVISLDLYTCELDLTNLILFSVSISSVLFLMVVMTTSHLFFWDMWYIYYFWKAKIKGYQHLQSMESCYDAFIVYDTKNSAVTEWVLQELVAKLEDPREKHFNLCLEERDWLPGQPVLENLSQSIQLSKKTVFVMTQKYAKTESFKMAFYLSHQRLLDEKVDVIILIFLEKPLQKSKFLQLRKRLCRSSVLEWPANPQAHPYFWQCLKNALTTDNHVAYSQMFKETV

[8] = Toxicity in C57BL/6J mouse implanted with mouse B16-F10 cells assessed as increase in systemic IL-6 secretion in serum at 25 mg/kg, ip administered every 2 days starting from 3 days post tumor inoculation and measured on day 18 by ELISA; assay type: organism-based; conditions: in vivo, 360 h, time 15 day
[9] = Toxicity in C57BL/6J mouse implanted with mouse B16-F10 cells assessed as behavioral abnormalities at 25 mg/kg, ip administered every 2 days starting from 3 days post tumor inoculation and measured on day 18; assay type: organism-based; conditions: in vivo, 360 h, time 15 day
[10] = Toxicity in C57BL/6J mouse implanted with mouse B16-F10 cells assessed as pathological changes in liver at 25 mg/kg, ip administered every 2 days starting from 3 days post tumor inoculation and measured on day 18 by H and E staining based analysis; assay type: organism-based; conditions: in vivo, 360 h, time 15 day
[11] = Toxicity in C57BL/6J mouse implanted with mouse B16-F10 cells assessed as physical abnormalities at 25 mg/kg, ip administered every 2 days starting from 3 days post tumor inoculation and measured on day 18; assay type: organism-based; conditions: in vivo, 360 h, time 15 day
L929 = experiment: Cytotoxicity against mouse L929 cells assessed as reduction in cell viability upto 100 uM incubated for 24 hrs by CCK-8 assay; assay type: toxicity, cell-based; conditions: l929, 24 h
[12] = Toxicity in C57BL/6J mouse implanted with mouse B16-F10 cells assessed as splenomegaly at 25 mg/kg, ip administered every 2 days starting from 3 days post tumor inoculation and measured on day 18; assay type: organism-based; conditions: in vivo, 360 h, time 15 day
Toll-like receptor 7 [13] = target: T2, Toll-like receptor 7 (Homo sapiens, UniProt Q9NYK1); experiment: Agonist activity at TLR7 in HEK-Blue hTLR7 cells expressing NF-kappaB/AP-1 inducible SEAP assessed as increase in SEAP activity incubated for 24 hrs by QUANTI-Blue assay; assay type: cell-based
T2 sequence (Q9NYK1 whole entry): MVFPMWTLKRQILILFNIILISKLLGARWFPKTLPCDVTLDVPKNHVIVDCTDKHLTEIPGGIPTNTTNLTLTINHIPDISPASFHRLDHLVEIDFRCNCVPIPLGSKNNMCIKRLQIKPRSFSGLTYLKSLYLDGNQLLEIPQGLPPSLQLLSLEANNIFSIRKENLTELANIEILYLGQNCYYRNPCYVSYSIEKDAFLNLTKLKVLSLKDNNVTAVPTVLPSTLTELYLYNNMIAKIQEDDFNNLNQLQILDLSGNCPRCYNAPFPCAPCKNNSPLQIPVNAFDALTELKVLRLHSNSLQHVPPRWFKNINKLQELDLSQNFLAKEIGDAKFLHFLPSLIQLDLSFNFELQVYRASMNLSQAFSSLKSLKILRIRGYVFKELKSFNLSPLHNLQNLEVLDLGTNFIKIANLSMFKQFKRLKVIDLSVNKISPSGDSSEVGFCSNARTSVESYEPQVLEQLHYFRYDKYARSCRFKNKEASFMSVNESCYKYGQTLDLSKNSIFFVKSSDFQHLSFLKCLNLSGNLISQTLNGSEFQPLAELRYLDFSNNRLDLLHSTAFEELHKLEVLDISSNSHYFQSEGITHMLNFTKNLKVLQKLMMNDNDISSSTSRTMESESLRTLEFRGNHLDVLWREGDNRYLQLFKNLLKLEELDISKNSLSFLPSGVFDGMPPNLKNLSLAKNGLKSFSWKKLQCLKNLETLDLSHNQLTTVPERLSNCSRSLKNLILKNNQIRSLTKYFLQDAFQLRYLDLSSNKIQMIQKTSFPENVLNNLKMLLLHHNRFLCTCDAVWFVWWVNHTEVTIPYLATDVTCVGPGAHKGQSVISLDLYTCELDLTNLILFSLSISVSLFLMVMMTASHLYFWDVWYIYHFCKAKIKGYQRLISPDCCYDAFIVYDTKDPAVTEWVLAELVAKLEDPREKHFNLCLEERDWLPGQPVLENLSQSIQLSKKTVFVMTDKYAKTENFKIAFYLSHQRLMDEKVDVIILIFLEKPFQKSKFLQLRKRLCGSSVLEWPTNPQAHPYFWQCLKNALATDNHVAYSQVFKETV

Compound: CCOCc1nc2c(N)nc3ccccc3c2n1CC(C)(C)O [RESIQUIMOD]
Activity (B16-F10): 49.9%
Activity (Peritoneal macrophage [1]): 29.8%
Activity (Peritoneal macrophage [2]): 65.8%

Compound: CCCCc1nc2c(N)nc3ccccc3c2n1CC1CCOC1 (stereo not given)
Activity [3]: Non-Toxic
Activity (L02): Non-Toxic
Activity [4]: Non-Toxic
Activity [5]: Non-Toxic
Activity [6]: Non-Toxic
Kd (Toll-like receptor 7 [7]): 47.2 nM
Activity [8]: Non-Toxic
Activity [9]: Non-Toxic
Activity [10]: Non-Toxic
Activity [11]: Non-Toxic
Activity (L929): Non-Toxic
Activity [12]: Non-Toxic

Compound: CCCCc1nc2c(N)nc3ccccc3c2n1Cc1ccc(OC)cc1
EC50 (Toll-like receptor 7 [13]): > 20000 nM

Continued, values first:

EC50 (Toll-like receptor 7 [13]): > 20000 nM
Compound: CCCc1nc2c(N)nc3ccccc3c2n1Cc1ccc(C(=O)OC)cc1

EC50 (Toll-like receptor 7 [13]): 525 nM
Compound: CCCCCc1nc2c(N)nc3ccccc3c2n1CC1CCOC1 (stereo not given)

EC50 (Toll-like receptor 7 [13]): 226 nM
Compound: CCCCc1nc2c(N)nc3ccccc3c2n1Cc1ccc(C(=O)NC)cc1

EC50 (Toll-like receptor 7 [13]): 3280 nM
Compound: CCCc1nc2c(N)nc3ccccc3c2n1CC1CCOC1 (stereo not given)
